Among the data in ChEMBL document CHEMBL4152294, “Design, synthesis, structure-activity relationships study and X-ray crystallography of 3-substituted-indolin-2-one-5-carboxamide derivatives as PAK4 inhibitors” (Eur J Med Chem, 2018) are IC50 values, retold here.

SMILES strings stand for the structures.

The subject of assay [1] is HCT-116. The experiment in a line: Antiproliferative activity against human HCT116 cells after 72 hrs by CCK8 assay. Type of assay: functional, cell-based. To be noted: HCT-116, 72 h. (Formazan colour is commonly taken as a measure of viable cells.)
Assay [2] concerns A549. Description: Antiproliferative activity against human A549 cells after 72 hrs by CCK8 assay. Type of assay: functional, cell-based. As to conditions: A549, 72 h.

Consider `Cc1nc(/C(=C2\C(=O)Nc3ccc(C(=O)N[C@H](CO)c4ccccc4)cc32)c2ccccc2)[nH]c1C`, for which the IC50 in assay [1] amounted to 2580 nM; in assay [2], 17700 nM.
On the same counts, the results for `O=C1Nc2ccc(C(=O)N[C@H](CO)c3ccccc3)cc2/C1=C(/c1ncc[nH]1)c1ccccc1Cl` are 635 nM and 1280 nM.
With `Cc1ncc(/C=C2\C(=O)Nc3ccc(C(=O)N[C@H](CO)c4ccccc4)cc32)[nH]1`, the IC50 in assay [1] is 4090 nM; in assay [2], 56100 nM.
As to `CCc1ncc(/C=C2\C(=O)Nc3ccc(C(=O)N[C@H](CO)c4ccccc4)cc32)[nH]1`, the IC50 is 2860 nM in assay [1] and 29800 nM in assay [2].
Take `O=C1Nc2ccc(C(=O)N[C@H](CO)c3ccccc3)cc2/C1=C(/c1ncc[nH]1)c1ccccc1F`: the IC50 in assay [1] was 88 nM; in assay [2], 666 nM.
Turning to `Cc1c[nH]c(/C(=C2\C(=O)Nc3ccc(C(=O)N[C@H](CO)c4ccccc4)cc32)c2ccccc2)n1`, the IC50 in assay [1] was determined as 77 nM; in assay [2], 511 nM.
On to `Cc1nc(Nc2n[nH]c3c2CN(C(=O)N[C@H](CN(C)C)c2ccccc2)C3(C)C)c2sccc2n1` [PF-03758309], for which the IC50 was 39 nM in assay [1] and 463 nM in assay [2].

A word on the IC50: it is the point on the concentration scale where inhibition reaches its midpoint.
